According to patent US11254640B2, “N-substituted indoles and other heterocycles for treating brain disorders” (The Regents of the University of California, priority 2019, dated 2022):

System: C57/BL6J mice
Assay: Forced swim test (FST)
Format: in vivo, mouse
Settings: 24 h after drug administration; i.p., compounds 20 mg/kg, ketamine 3 mg/kg
Description: Forced Swim Test. As increased cortical structural plasticity in the anterior parts of the brain mediates the sustained (>24 h) antidepressant-like effects of ketamine and play a role in the therapeutic effects of 5-HT2A agonists, the impact of IsoDMT analogs on forced swim test (FST) behavior (FIG. 14A and FIG. 14B) was evaluated. First, a pretest was used to induce a depressive phenotype. Compounds were administered 24 h after the pre-test, and the FST was performed 24 h and 7 d post drug administration.
Forced Swim Test (FST). Male C57/BL6J mice (9-10 weeks old at time of experiment) were obtained from the Jackson Lab and housed 4-5 mice/cage in a UCD vivarium following an IACUC approved protocol. After 1 week in the vivarium each mouse was handled for approximately 1 minute by a experimenter for 3 consecutive days leading up to the first FST. […] Immobility scores for all mice were determined after the pre-test and mice were randomly assigned to treatment groups to generate groups with similar average immobility scores to be used for the following two FST sessions. […] Experiments were video-recorded and manually scored offline. Immobility time—defined as passive floating or remaining motionless with no activity other than that needed to keep the mouse's head above water—was scored for the last 4 min of the 6 min trial.

In the case of `COc1ccc2c(ccn2C[C@@H](C)N(C)C)c1` [Example 59, (R)-1-(5-methoxy-1H-indol-1-yl)-N,N-dimethylpropan-2-amine], the “immobility in forced swim test” value is reported as “significantly reduced immobility”.
